The record followed here is PubChem BioAssay AID1314 (NMMLSC, 2008).

For the assay, the system named is S. cerevisiae Cln2-overexpressing, Sic1-GFP degradation, flow cytometry. The experiment in a line: yeast Sic1-GFP turnover with elevated Cln2 – secondary assay, flow cytometry, S. cerevisiae, mechanism study for 26S proteasome disassembly project (AID 1314). (In general: A flow cytometer gives signals particle by particle.)

The source made the active and inactive calls.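 Rule for the calls: active = compounds raising the area under the GFP-over-time curve by more than 15% versus untreated cells, meaning slower Sic1 breakdown; inactive = the rest.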 Residues, ends and D or L forms follow the SMILES beside them. *: point of attachment. Cbz = O=C(OCc1ccccc1)*

Regarding `CC(=O)N1C(=O)C(=C2C=C(C)OC(C)=C2)c2ccccc21`, the outcome was “active; degradation inhibitor”.

As to `CC(C)C[C@@H](C=O)NC(=O)[C@H](CC(C)C)NC(=O)[C@H](CC(C)C)NC(=O)OCc1ccccc1` (Cbz-Leu-Leu-Leu-aldehyde), the outcome is “active; degradation inhibitor”.
